The results in this text go back to US20260374754A1, “N-((ISOQUINOLIN-6-YL)METHYL)-1H-PYRAZOLE-4-CARBOXAMIDE DERIVATIVES AS PLASMA KALLIKREIN INHIBITORS FOR THE TREATMENT OF HEREDITARY ANGIODEMA” (Takeda Pharmaceutical Company Limited, priority 2022, published 2026).

For orientation: IC90 means the point of the concentration-response curve where the effect stands at 90%. A higher IC90 goes with weaker potency. The EC50 is the concentration giving half of the maximal effect.

Structures can show the parent of a compound that is named as a salt.

For one experiment, the target named is T1, plasma kallikrein (Homo sapiens, UniProt P03952).
T1 construct: PFR-AMC substrate
T1 sequence (P03952 20-638): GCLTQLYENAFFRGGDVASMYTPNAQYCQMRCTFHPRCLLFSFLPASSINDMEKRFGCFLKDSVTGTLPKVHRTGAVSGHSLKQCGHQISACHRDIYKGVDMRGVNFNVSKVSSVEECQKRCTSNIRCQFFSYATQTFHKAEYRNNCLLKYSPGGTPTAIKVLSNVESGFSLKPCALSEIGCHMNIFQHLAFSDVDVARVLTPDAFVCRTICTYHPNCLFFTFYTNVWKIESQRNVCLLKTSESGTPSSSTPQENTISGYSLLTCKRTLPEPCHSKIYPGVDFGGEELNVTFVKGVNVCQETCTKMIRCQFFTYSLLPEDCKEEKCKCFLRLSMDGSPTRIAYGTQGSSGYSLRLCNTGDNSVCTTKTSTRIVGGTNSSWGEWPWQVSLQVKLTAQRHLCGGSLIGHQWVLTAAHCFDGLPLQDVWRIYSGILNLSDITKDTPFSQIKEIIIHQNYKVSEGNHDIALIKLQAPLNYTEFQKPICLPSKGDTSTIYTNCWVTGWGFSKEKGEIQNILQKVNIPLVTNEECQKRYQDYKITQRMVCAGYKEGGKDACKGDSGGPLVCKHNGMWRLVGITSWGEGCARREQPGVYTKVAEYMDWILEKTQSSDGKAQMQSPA
Put plainly: Neat Human Plasma Assay (Fluorogenic Peptide), contact pathway-activated (FXIIa) plasma. It counts as biochemical. Particulars: human citrated plasma 78% final; 10 nM human FXIIa; PFR-AMC substrate; 5 minutes; room temperature. As to the method: To analyze inhibition of plasma kallikrein in an ex vivo setting, the potency of compounds was measure in contact pathway-activated plasma assays. In a fluorogenic peptide substrate assay, test compounds dissolved in DMSO were added to sodium citrate collected human or rat plasma in a 96-well microplate. Alternatively, citrated plasma was collected from rats administered the compounds orally or by IV. 10 nM of human FXIIa (Enzyme Research Laboratories) diluted in PKa buffer (20 mM Tris-HCl, pH 7.5, 150 mM NaCl, 1 mM EDTA, 0.1% PEG-8000, and 0.1% Triton X-100) was added to the plasma, followed by the […] of the profluorescent, synthetic plasma kallikrein substrate PFR-AMC (also diluted in PKa buffer). Final plasma concentration in the reaction was 78%. Fluorescence was immediately monitored by excitation/emission wavelengths of 360 nm/480 nm respectively over a period of 5 minutes in a microplate reader. The resulting linear increase in fluorescence emission (reflecting PKa proteolysis of PFR-AMC substrate) was fit to extract a proteolytic rate (fluorescent units over time), and this rate was subsequently plotted against compound inhibitor concentration. Resulting plots were fit to a standard 4-parameter IC50/IC90 equation to determine min/max values, IC50/90, and slope. All experimental steps were performed at room temperature.

The target of experiment [1] is human activated kallikrein enzyme (Homo sapiens, UniProt P03952). Put plainly: Inhibition of human activated plasma kallikrein, fluorogenic PFR-AMC substrate, 500 pM enzyme format. It counts as biochemical. The conditions noted are these: 500 pM activated kallikrein; 300 μM PFR-AMC; 30 min preincubation; 10 min room temperature; pH 7.5; read-out: Primary Dose Response Assay: Average EC50. The method in brief:
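Using fluorogenic PFR-AMC at 300 μM, cleavage by 500 pM human activated kallikrein ran 10 min at room temperature, read at 460 nm emission (380 nm excitation). Enzyme and compounds were first preincubated 30 min in 20 mM Tris pH 7.5, 150 mM NaCl, 1 mM EDTA, 0.1% PEG-400, 0.1% Triton X-100.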

human activated kallikrein enzyme, sequence (P03952 391-638 limits assumed): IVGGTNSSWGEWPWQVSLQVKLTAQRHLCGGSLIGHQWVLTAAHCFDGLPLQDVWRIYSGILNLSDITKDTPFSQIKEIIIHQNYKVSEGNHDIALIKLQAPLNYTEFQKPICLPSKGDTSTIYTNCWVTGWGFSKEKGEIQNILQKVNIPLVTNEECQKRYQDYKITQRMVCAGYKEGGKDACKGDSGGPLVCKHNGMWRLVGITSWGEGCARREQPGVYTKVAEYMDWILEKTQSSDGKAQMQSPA
human activated kallikrein enzyme, sequence (P03952 20-390 partner limits assumed): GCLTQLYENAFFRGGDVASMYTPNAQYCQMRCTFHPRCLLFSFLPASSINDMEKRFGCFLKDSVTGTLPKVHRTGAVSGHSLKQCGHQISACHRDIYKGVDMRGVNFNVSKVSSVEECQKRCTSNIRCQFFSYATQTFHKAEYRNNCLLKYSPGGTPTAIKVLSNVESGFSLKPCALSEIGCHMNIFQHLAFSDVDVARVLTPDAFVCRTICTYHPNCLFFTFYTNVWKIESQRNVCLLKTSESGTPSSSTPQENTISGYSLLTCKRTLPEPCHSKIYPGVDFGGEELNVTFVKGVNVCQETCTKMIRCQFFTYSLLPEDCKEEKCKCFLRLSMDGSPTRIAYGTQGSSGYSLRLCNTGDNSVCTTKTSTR

Turning to `Cc1cc2c(N)nccc2c(C)c1CNc1cc(SCc2cn3cc(C4CC4)ccc3n2)ncn1` [Example 290, 6-(((6-(((6-cyclopropylimidazo[1,2-a]pyridin-2-yl)methyl)thio)pyrimidin-4-yl)amino)methyl)-5,7-dimethylisoquinolin-1-amine], at plasma kallikrein, the IC90 lay within 1000 to 5000 nM. For the same molecule, the EC50 in experiment [1] was under 1 nM.
The matching figures for `Cc1cc2c(N)nccc2c(C)c1CNc1cc(OCc2cn3cc(C4CC4)cc(C4(F)COC4)c3n2)ncn1` [Example 272, 6-(((6-((6-cyclopropyl-8-(3-fluorooxetan-3-yl)imidazo[1,2-a]pyridin-2-yl)methoxy)pyrimidin-4-yl)amino)methyl)-5,7-dimethylisoquinolin-1-amine]: 1000 to 5000 nM and under 1 nM.
With `Cc1cc2c(N)nccc2c(C)c1CNc1cc(OCc2ccc(Cn3cccn3)cc2)ncn1` [Example 251, 6-(((6-((4-((1H-pyrazol-1-yl)methyl)benzyl)oxy)pyrimidin-4-yl)amino)methyl)-5,7-dimethylisoquinolin-1-amine], at plasma kallikrein, the 90% effect concentration (IC90) is over 5000 nM. The EC50 in experiment [1] is under 1 nM.
The corresponding values for `Cc1cc2c(N)nccc2c(C)c1CNc1cc2c(cn1)ncn2Cc1cn2cc(C3CC3)ccc2n1` [Example 499, 6-(((1-((6-cyclopropylimidazo[1,2-a]pyridin-2-yl)methyl)-1H-imidazo[4,5-c]pyridin-6-yl)amino)methyl)-5,7-dimethylisoquinolin-1-amine] are at most 1000 nM and under 1 nM.
On to `Cc1cc2c(N)nccc2c(C)c1CNC(=O)c1cnn(Cc2ccc(CC(=O)N3CC4CC4C3)cc2)c1` (stereo not drawn) [Example 222, 1-(4-(2-(3-azabicyclo[3.1.0]hexan-3-yl)-2-oxoethyl)benzyl)-N-((1-amino-5,7-dimethylisoquinolin-6-yl)methyl)-1H-pyrazole-4-carboxamide], for which the IC90 against plasma kallikrein lay within 1000 to 5000 nM. Moreover, in experiment [1], the EC50 was under 1 nM.
The corresponding values for `Cc1cc2c(N)nccc2c(C)c1CNc1cc(OCc2cnc3ccc(C4CC4)cc3c2)ncn1` [Example 387, 6-(((6-((6-cyclopropylquinolin-3-yl)methoxy)pyrimidin-4-yl)amino)methyl)-5,7-dimethylisoquinolin-1-amine] are over 5000 nM and 1 to 10 nM.
`Cc1cc2c(N)nccc2c(C)c1CNc1ncncc1NCc1cn2cc(C3CC3)ccc2n1` [Example 288, N4-((1-amino-5,7-dimethylisoquinolin-6-yl)methyl)-N5-((6-cyclopropylimidazo[1,2-a]pyridin-2-yl)methyl)pyrimidine-4,5-diamine] showed an IC90 against plasma kallikrein of over 5000 nM. In addition, the EC50 in experiment [1] lay in the range of 1 to 10 nM.
The matching figures for `Cc1cc2c(N)nccc2c(C)c1CNc1cc(OCc2nc3ccc(C4CC4)nn3n2)ncn1` [Example 391, 6-(((6-((6-cyclopropyl-[1,2,4]triazolo[1,5-b]pyridazin-2-yl)methoxy)pyrimidin-4-yl)amino)methyl)-5,7-dimethylisoquinolin-1-amine]: over 5000 nM and 10 to 100 nM.
Regarding `Cc1cc2c(N)nccc2c(C)c1CNC(=O)c1cn(Cc2ccc(N3CCCC3)nc2)nc1C(F)(F)F` [Example 194, N-((1-amino-5,7-dimethylisoquinolin-6-yl)methyl)-1-((6-(pyrrolidin-1-yl)pyridin-3-yl)methyl)-3-(trifluoromethyl)-1H-pyrazole-4-carboxamide], the IC90 against plasma kallikrein was over 5000 nM. In experiment [1], the EC50 is 1 to 10 nM.
The matching figures for `Cc1cc2c(N)nccc2c(C)c1CNC(=O)c1cnn(Cc2cn3cc(Cl)ccc3n2)c1` [Example 101, N-((1-amino-5,7-dimethylisoquinolin-6-yl)methyl)-1-((6-chloroimidazo[1,2-a]pyridin-2-yl)methyl)-1H-pyrazole-4-carboxamide]: at most 1000 nM and under 1 nM.
The corresponding values for “N-((1-amino-5,7-dimethylisoquinolin-6-yl)methyl)-1-(4-((2-oxopyridin-1(2H)-y1)methyl)benzyl)-1H-1,2,3-triazole-4-carboxamide [Example 186]” are at most 1000 nM and under 1 nM.
At plasma kallikrein, `Cc1cc2c(N)nccc2c(C)c1CNc1cc(OCc2ccc3ncc(Cl)cc3c2)ncn1` [Example 373, 6-(((6-((3-chloroquinolin-6-yl)methoxy)pyrimidin-4-yl)amino)methyl)-5,7-dimethylisoquinolin-1-amine formic acid salt] had an IC90 of over 5000 nM. In addition, in experiment [1], the EC50 lay in the range of 1 to 10 nM.
The matching figures for `Cc1cc2c(N)nccc2c(C)c1CNc1cc(OCc2ccc(Cn3cccn3)cc2)cnn1` [Example 432, 6-(((5-((4-((1H-pyrazol-1-yl)methyl)benzyl)oxy)pyridazin-3-yl)amino)methyl)-5,7-dimethylisoquinolin-1-amine]: 1000 to 5000 nM and under 1 nM.
The matching figures for `Cc1cc2c(N)nccc2c(C)c1CNc1cc(OCc2cc(C#N)c3ncc(Cl)cc3c2)ncn1` [Example 398, 6-(((6-(((1-amino-5,7-dimethylisoquinolin-6-yl)methyl)amino)pyrimidin-4-yl)oxy)methyl)-3-chloroquinoline-8-carbonitrile]: over 5000 nM and 1 to 10 nM.
The molecule `Cc1cc2c(N)nccc2c(C)c1CNc1nccc2nn(Cc3cn4cc(C5CC5)cnc4n3)cc12` [Example 392, 6-(((2-((6-cyclopropylimidazo[1,2-a]pyrimidin-2-yl)methyl)-2H-pyrazolo[4,3-c]pyridin-4-yl)amino)methyl)-5,7-dimethylisoquinolin-1-amine] displayed an IC90 on plasma kallikrein of at most 1000 nM. The EC50 in experiment [1] was under 1 nM.
The molecule `Cc1cc2c(N)nccc2c(C)c1CNc1cc2c(ccn2Cc2ccc(Cn3cccn3)cc2)nn1` [Example I-457, 6-(((5-(4-((1H-pyrazol-1-yl)methyl)benzyl)-5H-pyrrolo[3,2-c]pyridazin-3-yl)amino)methyl)-5,7-dimethylisoquinolin-1-amine] returned an IC90 against plasma kallikrein of at most 1000 nM. The EC50 in experiment [1] is under 1 nM.
The corresponding values for `Cc1cc2c(N)nccc2c(C)c1CNc1cc(OCc2nc3ccc(C4CC4)cn3n2)ncn1` [Example 388, 6-(((6-((6-cyclopropyl-[1,2,4]triazolo[1,5-a]pyridin-2-yl)methoxy)pyrimidin-4-yl)amino)methyl)-5,7-dimethylisoquinolin-1-amine] are over 5000 nM and 1 to 10 nM.
The matching figures for `Cc1cc2c(N)nccc2c(C)c1CNc1cc(NCc2cn3cc(Cl)ccc3n2)ncn1` [Example 313, N^4-((1-amino-5,7-dimethylisoquinolin-6-yl)methyl)-N^6-((6-chloroimidazo[1,2-a]pyridin-2-yl)methyl)pyrimidine-4,6-diamine, formic acid salt]: over 5000 nM and under 1 nM.
On to `Cc1cc2c(N)nccc2c(C)c1CNc1cc(NCc2cc3cc(C4CC4)ccn3n2)ncn1` [Example 244], for which the concentration for an effect of 90% (IC90) against plasma kallikrein lay within 1000 to 5000 nM. The EC50 in experiment [1] was under 1 nM.
The corresponding values for `Cc1cc2c(N)nccc2c(C)c1CNc1nccn2nc(Cc3cn4cc(C5CC5)ccc4n3)nc12` [Example 498, 6-(((2-((6-cyclopropylimidazo[1,2-a]pyridin-2-yl)methyl)-[1,2,4]triazolo[1,5-a]pyrazin-8-yl)amino)methyl)-5,7-dimethylisoquinolin-1-amine] are 1000 to 5000 nM and 1 to 10 nM.
The matching figures for `Cc1cc2c(N)nccc2c(C)c1CNC(=O)c1cnn(Cc2ccc(Cn3ccccc3=O)cc2)c1` [Example 192, N-((1-amino-5,7-dimethylisoquinolin-6-yl)methyl)-1-(4-((2-oxopyridin-1(2H)-y1)methyl)benzyl)-1H-pyrazole-4-carboxamide]: at most 1000 nM and under 1 nM.
The matching figures for `Cc1cc2c(N)nccc2c(C)c1CNc1cc(OCc2cc3cc(C4CC4)cc(CC(C)(C)C#N)n3n2)ncn1` [Example 510, 3-(2-(((6-(((1-amino-5,7-dimethylisoquinolin-6-yl)methyl)amino)pyrimidin-4-yl)oxy)methyl)-5-cyclopropylpyrazolo[1,5-a]pyridin-7-yl)-2,2-dimethylpropanenitrile]: 1000 to 5000 nM and 1 to 10 nM.
In turn, `Cc1cc2c(N)nccc2c(C)c1CNc1nccc2nn(Cc3cn4cc(C5CC5)ccc4n3)cc12` [Example 267, 6-(((2-((6-cyclopropylimidazo[1,2-a]pyridin-2-yl)methyl)-2H-pyrazolo[4,3-c]pyridin-4-yl)amino)methyl)-5,7-dimethylisoquinolin-1-amine] had an IC90 against plasma kallikrein of at most 1000 nM. Moreover, the EC50 in experiment [1] was under 1 nM.
In turn, `Cc1cc2c(N)nccc2c(C)c1CNc1nccc2cn(Cc3cn4nc(C5CC5)ccc4n3)nc12` [Example 265, 6-(((2-((6-cyclopropylimidazo[1,2-b]pyridazin-2-yl)methyl)-2H-pyrazolo[3,4-c]pyridin-7-yl)amino)methyl)-5,7-dimethylisoquinolin-1-amine] came in with an IC90 against plasma kallikrein of at most 1000 nM. The EC50 in experiment [1] was under 1 nM.
